Test results taken from ChEMBL document CHEMBL1142309, “The discovery of GSK221149A: a potent and selective oxytocin antagonist” (Bioorg Med Chem Lett, 2008).
≈ marks a conversion by molar mass, not a printed value. Where a SMILES comes first, the peptide text is derived from it. Bridges are numbered along the chain shown (N, C = ends). [ ]: non-standard residue; d: D form. Orn = NCCC[C@H](N)C(=O)O; Mpa = O=C(O)CCS

Tests used:
[1] = AUC in rat at 5 mg/kg, po in HPMC/Tween formulation; type: ADME, organism-based; design: dose 5 mg/kg, route oral; settings: plasma
[2] = Aqueous solubility of the compound; type: physicochemical; settings: buffer
[3] = Clearance in rat at 2 mg/kg, iv or 5 mg/kg, po; type: ADME, organism-based; settings: in vivo
[4] = Bioavailability in rat at 2 mg/kg, iv or 5 mg/kg, po; type: ADME, organism-based; settings: in vivo
Oxytocin receptor = target: T1, Oxytocin receptor (Homo sapiens, UniProt P30559); assay: Binding affinity to human oxytocin receptor
T1 sequence (P30559 whole entry): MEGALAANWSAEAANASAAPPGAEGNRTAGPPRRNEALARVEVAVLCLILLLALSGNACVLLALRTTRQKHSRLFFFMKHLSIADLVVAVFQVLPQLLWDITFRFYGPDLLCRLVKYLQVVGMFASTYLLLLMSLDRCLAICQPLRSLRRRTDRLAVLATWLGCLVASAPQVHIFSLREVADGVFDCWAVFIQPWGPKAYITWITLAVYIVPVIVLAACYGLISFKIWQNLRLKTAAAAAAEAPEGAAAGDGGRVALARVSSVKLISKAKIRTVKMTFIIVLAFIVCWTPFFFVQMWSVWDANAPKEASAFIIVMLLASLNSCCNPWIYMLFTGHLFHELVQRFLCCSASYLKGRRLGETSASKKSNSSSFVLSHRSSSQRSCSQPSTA

[5] = AUC in rat at 5 mg/kg, po in DMSO/PEG400 formulation; type: ADME, organism-based; design: dose 5 mg/kg, route oral; settings: plasma
[6] = Half life in rat at 2 mg/kg, iv or 5 mg/kg, po; type: ADME, organism-based; settings: in vivo
[7] = Binding affinity to human serum albumin; type: ADME, cell-free; settings: read-out: PB (converted)
[8] = Selectivity for human oxytocin receptor over vasopressin V1a receptor
Cytochrome P450 3A4 = Cytochrome P450 3A4 (Homo sapiens, UniProt P08684); assay: Inhibition of CYP3A4; type: ADME
Sequence of Cytochrome P450 3A4 (P08684 whole entry): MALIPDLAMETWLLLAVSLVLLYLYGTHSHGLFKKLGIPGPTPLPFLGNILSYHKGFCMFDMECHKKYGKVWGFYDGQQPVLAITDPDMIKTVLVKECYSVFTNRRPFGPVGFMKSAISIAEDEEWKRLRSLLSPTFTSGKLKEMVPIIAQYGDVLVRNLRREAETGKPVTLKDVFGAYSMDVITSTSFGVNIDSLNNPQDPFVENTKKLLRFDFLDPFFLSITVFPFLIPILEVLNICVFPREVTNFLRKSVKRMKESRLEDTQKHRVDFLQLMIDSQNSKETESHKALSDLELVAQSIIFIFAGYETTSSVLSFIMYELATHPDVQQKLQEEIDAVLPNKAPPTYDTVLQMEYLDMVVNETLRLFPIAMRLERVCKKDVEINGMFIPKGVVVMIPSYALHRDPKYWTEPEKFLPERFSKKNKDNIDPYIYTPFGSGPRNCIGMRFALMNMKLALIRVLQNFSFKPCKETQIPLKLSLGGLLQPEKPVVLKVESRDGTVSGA

[9] = Distribution coefficient, log D of the compound; type: physicochemical; settings: chromatographic
Vasopressin V1a receptor = Vasopressin V1a receptor (Homo sapiens, UniProt P37288); assay: Binding affinity to human vasopressin V1a receptor
Sequence of Vasopressin V1a receptor (P37288 whole entry): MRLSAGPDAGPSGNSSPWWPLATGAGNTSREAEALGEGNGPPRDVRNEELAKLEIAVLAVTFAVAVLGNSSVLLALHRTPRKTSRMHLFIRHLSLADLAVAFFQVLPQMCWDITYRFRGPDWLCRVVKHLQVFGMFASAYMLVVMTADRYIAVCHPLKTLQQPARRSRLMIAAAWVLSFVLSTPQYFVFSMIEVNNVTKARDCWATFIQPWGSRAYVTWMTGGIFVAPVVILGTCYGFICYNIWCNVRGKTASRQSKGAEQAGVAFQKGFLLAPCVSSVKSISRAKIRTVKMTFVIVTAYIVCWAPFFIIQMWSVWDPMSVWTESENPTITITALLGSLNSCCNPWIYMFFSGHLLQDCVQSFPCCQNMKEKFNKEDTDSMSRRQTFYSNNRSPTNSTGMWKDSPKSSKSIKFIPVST

Vasopressin V2 receptor = Vasopressin V2 receptor (Homo sapiens, UniProt P30518); assay: Binding affinity to human vasopressin V2 receptor
Sequence of Vasopressin V2 receptor (P30518 whole entry): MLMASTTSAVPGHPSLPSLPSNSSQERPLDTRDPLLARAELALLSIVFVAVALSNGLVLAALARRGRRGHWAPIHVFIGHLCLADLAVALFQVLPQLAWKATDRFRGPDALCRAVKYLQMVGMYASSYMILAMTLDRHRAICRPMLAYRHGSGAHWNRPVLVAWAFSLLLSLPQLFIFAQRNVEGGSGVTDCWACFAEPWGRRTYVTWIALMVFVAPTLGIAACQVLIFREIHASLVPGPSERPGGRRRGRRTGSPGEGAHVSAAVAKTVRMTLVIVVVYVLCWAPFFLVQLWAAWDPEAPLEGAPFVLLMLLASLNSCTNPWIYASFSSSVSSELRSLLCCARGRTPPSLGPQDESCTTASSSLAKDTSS

Vasopressin V1b receptor = target: T2, Vasopressin V1b receptor (Homo sapiens, UniProt P47901); assay: Binding affinity to human vasopressin V1b receptor
T2 sequence (P47901 whole entry): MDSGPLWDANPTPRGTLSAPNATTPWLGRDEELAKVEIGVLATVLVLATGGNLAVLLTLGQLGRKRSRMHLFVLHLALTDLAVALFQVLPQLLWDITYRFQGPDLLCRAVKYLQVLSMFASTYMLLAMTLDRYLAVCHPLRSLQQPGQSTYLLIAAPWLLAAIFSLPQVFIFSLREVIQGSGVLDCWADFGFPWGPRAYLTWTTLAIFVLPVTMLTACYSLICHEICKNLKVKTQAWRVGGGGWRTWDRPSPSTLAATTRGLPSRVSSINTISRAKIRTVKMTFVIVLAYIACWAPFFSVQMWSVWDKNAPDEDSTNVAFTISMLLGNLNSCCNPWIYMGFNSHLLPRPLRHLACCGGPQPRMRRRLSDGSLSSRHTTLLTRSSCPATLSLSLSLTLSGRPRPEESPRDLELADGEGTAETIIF

Rattus norvegicus = assay: Decrease in oxytocin-induced uterine contractions in iv dosed non-pregnant Sprague-Dawley rat; type: functional, organism-based
[10] = target: Oxytocin receptor (Rattus norvegicus) (UniProt P70536); assay: Binding affinity to recombinant oxytocin receptor
Sequence of Oxytocin receptor (Rattus norvegicus) (P70536 whole entry, looked up): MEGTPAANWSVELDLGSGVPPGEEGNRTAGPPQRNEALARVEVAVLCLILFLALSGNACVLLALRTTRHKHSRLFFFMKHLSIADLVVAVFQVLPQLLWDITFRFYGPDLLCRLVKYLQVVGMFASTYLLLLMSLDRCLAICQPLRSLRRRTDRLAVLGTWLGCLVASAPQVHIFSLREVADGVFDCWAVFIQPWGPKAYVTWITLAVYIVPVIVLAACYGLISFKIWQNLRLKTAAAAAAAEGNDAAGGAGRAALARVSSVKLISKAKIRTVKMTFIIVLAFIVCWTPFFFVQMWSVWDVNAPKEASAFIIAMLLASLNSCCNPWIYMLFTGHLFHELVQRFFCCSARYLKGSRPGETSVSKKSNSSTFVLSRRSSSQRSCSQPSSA

SMILES	solubility [2] [µg/mL]	Ki (Oxytocin receptor; read-out: Log Ki (converted)) [nM]	fraction unbound [7]	IC50 (Cytochrome P450 3A4) [nM]	further results
Cc1nc([C@H](C(=O)N2CCOCC2)N2C(=O)[C@@H](C3Cc4ccccc4C3)NC(=O)[C@H]2CC(C)C)co1	> 220	2	> 0.2	> 100000	AUC [1]: 1190 ng·h/mL; clearance [3]: 23 mL/min/kg; bioavailability [4]: 33%; AUC [5]: 3630 ng·h/mL; half-life [6]: 1.1 h; Selectivity ratio [8]: > 10
Cc1nc([C@H](C(=O)N2CCC2)N2C(=O)[C@@H](C3Cc4ccccc4C3)NC(=O)[C@H]2CC(C)C)co1	> 220	1.58	> 0.2	> 100000	clearance [3]: 35 mL/min/kg; bioavailability [4]: 45%; AUC [5]: 1070 ng·h/mL; half-life [6]: 1.4 h; Selectivity ratio [8]: > 10
Cc1nc([C@H](C(=O)N(C)C)N2C(=O)[C@@H](C3Cc4ccccc4C3)NC(=O)[C@H]2CC(C)C)c(C)o1	–	3.16	–	–	–
Cc1nc([C@H](C(=O)N(C)C)N2C(=O)[C@@H](C3Cc4ccccc4C3)NC(=O)[C@H]2CC(C)C)cs1	–	0.398	–	–	–
CC(C)C[C@@H]1C(=O)N[C@H](C2Cc3ccccc3C2)C(=O)N1[C@@H](C(=O)NC(C)C)c1coc(C(F)(F)F)n1	–	0.158	–	–	–
CC[C@H](C)[C@@H]1C(=O)N[C@H](C2Cc3ccccc3C2)C(=O)N1[C@@H](C(=O)N1CCOCC1)c1coc(C)n1 [RETOSIBAN]	> 220	–	> 0.2	> 100000	AUC [1]: 1800 ng·h/mL; clearance [3]: 19 mL/min/kg; bioavailability [4]: 100%; Ki (Vasopressin V1a receptor): > 12000 nM; Ki (Vasopressin V2 receptor): 950 nM; AUC [5]: 5470 ng·h/mL; Ki (Vasopressin V1b receptor): > 10000 nM; half-life [6]: 1.4 h; IC50 (Rattus norvegicus): 180 nM; ED50 (Rattus norvegicus; iv, read-out: ID50 (the source's name)): 0.27 mg/kg
CC(C)C[C@@H]1C(=O)N[C@H](C2Cc3ccccc3C2)C(=O)N1[C@@H](C(=O)NC(C)(C)C)c1ccoc1	–	12.6	–	–	–
CC(C)C[C@@H]1C(=O)N[C@H](C2Cc3ccccc3C2)C(=O)N1[C@@H](C(=O)N(C)C)c1coc(C2CC2)n1	–	0.794	–	–	–
CC[C@@H](C)[C@@H]1C(=O)N[C@H](C2Cc3ccccc3C2)C(=O)N1[C@@H](C(=O)N1CCOCC1)c1coc(C)n1	> 220	–	> 0.2	> 100000	clearance [3]: 14 mL/min/kg; bioavailability [4]: 69%; AUC [5]: 4200 ng·h/mL; half-life [6]: 1.3 h
Cc1nc([C@H](C(=O)N(C)CCO)N2C(=O)[C@@H](C3Cc4ccccc4C3)NC(=O)[C@H]2CC(C)C)co1	> 220	1.26	> 0.2	> 100000	AUC [5]: 218 ng·h/mL; Selectivity ratio [8]: > 10
CCOc1ccc(C[C@H]2NC(=O)CCSSC[C@@H](C(=O)N3CCC[C@H]3C(=O)N[C@@H](CCCN)C(=O)NCC(N)=O)NC(=O)[C@H](CC(N)=O)NC(=O)[C@H]([C@@H](C)O)NC(=O)[C@H]([C@@H](C)CC)NC2=O)cc1 [ATOSIBAN] ([Mpa][dY](Et)ITNCP[Orn]G-NH2; disulfide 1-6)	–	–	–	–	Ki (Vasopressin V1a receptor): 0.15 nM; Ki (Vasopressin V2 receptor): 330 nM; Ki (Oxytocin receptor; read-out: Ki): 11 nM; Ki (Vasopressin V1b receptor): 44 nM; Ki [10]: 32 nM

More lines, main results first:

solubility [2] [µg/mL]	Ki (Oxytocin receptor; read-out: Log Ki (converted)) [nM]	fraction unbound [7]	IC50 (Cytochrome P450 3A4) [nM]	SMILES	further results
< 1	0.1	0.03	3000	CC(C)C[C@@H]1C(=O)N[C@H](C2Cc3ccccc3C2)C(=O)N1[C@@H](C(=O)NC(C)C)c1ccc(C(F)(F)F)o1	logD [9]: 3.6
34 (≈ 73 µM)	1	0.04	7000	Cc1ccc([C@H](C(=O)NC(C)C)N2C(=O)[C@@H](C3Cc4ccccc4C3)NC(=O)[C@H]2CC(C)C)o1	logD [9]: 3.3
–	0.794	–	–	CC(C)C[C@@H]1C(=O)N[C@H](C2Cc3ccccc3C2)C(=O)N1[C@@H](C(=O)NC(C)C)c1ccc(Br)o1	–
–	1.26	–	–	Cc1cc([C@H](C(=O)NC(C)C)N2C(=O)[C@@H](C3Cc4ccccc4C3)NC(=O)[C@H]2CC(C)C)oc1C	–
–	6.31	–	–	CC(C)C[C@@H]1C(=O)N[C@H](C2Cc3ccccc3C2)C(=O)N1[C@@H](C(=O)NC(C)C)c1cccs1	–
–	6.31	–	–	CC(C)C[C@@H]1C(=O)N[C@H](C2Cc3ccccc3C2)C(=O)N1[C@@H](C(=O)NC(C)C)c1ccco1	–
–	39.8	–	–	CNC(=O)c1ccc([C@H](C(=O)NC(C)C)N2C(=O)[C@@H](C3Cc4ccccc4C3)NC(=O)[C@H]2CC(C)C)o1	–
> 240	1.26	0.37	> 100000	Cc1nc([C@H](C(=O)NC(C)C)N2C(=O)[C@@H](C3Cc4ccccc4C3)NC(=O)[C@H]2CC(C)C)co1	AUC [5]: 225 ng·h/mL; logD [9]: 2.5; Selectivity ratio [8]: > 10
–	2.51	–	–	CC(C)C[C@@H]1C(=O)N[C@H](C2Cc3ccccc3C2)C(=O)N1[C@@H](C(=O)NC(C)C)c1ccc(-c2ccccn2)s1	–
< 1	–	0.07	4000	CC(C)C[C@@H]1C(=O)N[C@H](C2Cc3ccccc3C2)C(=O)N1[C@@H](C(=O)NC(C)C)c1ccc(F)cc1F	logD [9]: 3.4
–	1	–	–	CC(C)C[C@@H]1C(=O)N[C@H](C2Cc3ccccc3C2)C(=O)N1[C@@H](C(=O)NC(C)C)c1cc(Br)cs1	–
< 1	2	0.01	1000	CC(C)C[C@@H]1C(=O)N[C@H](C2Cc3ccccc3C2)C(=O)N1[C@@H](C(=O)NC(C)C)c1ccc(Br)s1	logD [9]: 3.7
